According to ChEMBL document CHEMBL1145849, “QSAR and the rational design of long-acting dual D2-receptor/beta 2-adrenoceptor agonists” (J Med Chem, 2003):
Several values for one entry are separate records, joined by “and”; a condition that tells them apart may be missing. Equal entries are not always repeated.

Legend:
[1] = biological target: Beta-2 adrenergic receptor (Cavia porcellus) (UniProt Q8K4Z4); details: Trachea
Description: Beta-2-adrenoceptor potency was determined in rings of guinea-pig isolated trachea

[2] = biological target: D(2) dopamine receptor (Homo sapiens) (UniProt P14416); assay: […] D2 duration was determined using electrically stimulated guinea-pig isolated trachea superfusion system; format: functional; details: Cavia porcellus, target entry is the homologue from another species
[3] = biological target: Beta-2 adrenergic receptor (Cavia porcellus) (UniProt Q8K4Z4)
Description: In vitro beta-2 duration was determined using electrically stimulated guinea-pig isolated trachea superfusion system

physchem [4] = details: octanol/water, pH 7.4, logD
[5] = octanol/water, pH 7.4
physchem [6] = assay: physchem
Description: (§1) Classification of ionization constant (pKa)

physchem [7] = assay: physchem; remark: listed apart in the source
Description: Ionization constant (pKa)

physchem [8] = assay: physchem; remark: listed apart in the source
Description: as §1

Chain of Beta-2 adrenergic receptor (Cavia porcellus) (Q8K4Z4 whole entry, looked up, the tested form may be a part): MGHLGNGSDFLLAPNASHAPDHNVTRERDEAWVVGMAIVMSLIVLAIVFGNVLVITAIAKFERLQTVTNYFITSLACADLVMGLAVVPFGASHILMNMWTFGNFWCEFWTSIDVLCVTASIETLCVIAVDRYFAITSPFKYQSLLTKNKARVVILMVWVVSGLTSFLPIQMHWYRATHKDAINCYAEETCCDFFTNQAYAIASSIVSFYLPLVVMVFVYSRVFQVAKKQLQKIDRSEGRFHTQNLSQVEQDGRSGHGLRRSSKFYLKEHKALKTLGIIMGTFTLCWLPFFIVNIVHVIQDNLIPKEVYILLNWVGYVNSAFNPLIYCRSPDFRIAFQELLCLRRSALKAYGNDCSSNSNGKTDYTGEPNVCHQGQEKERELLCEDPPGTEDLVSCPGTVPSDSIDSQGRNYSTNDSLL
Chain of D(2) dopamine receptor (Homo sapiens) (P14416 whole entry, the tested form may be a part): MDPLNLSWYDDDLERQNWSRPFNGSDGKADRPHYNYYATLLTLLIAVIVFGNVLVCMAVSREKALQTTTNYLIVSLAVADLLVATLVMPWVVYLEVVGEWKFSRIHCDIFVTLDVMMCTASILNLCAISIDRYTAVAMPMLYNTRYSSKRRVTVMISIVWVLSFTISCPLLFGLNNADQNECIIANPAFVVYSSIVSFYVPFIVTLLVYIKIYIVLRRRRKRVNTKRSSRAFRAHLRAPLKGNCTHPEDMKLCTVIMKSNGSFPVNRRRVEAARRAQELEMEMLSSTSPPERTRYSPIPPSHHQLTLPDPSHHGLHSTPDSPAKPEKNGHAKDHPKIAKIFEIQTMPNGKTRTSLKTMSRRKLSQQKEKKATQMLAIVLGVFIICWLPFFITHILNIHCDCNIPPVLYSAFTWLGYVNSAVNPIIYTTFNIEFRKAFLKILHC

Row | SMILES | p[A]50 [1] | D2 duration [2] [min] | Beta2 duration [3] | logD (physchem [4]) | logD [5] | pKa (physchem [6]) | pKa (physchem [7]) | pKa (physchem [8])
1 | O=c1[nH]c2c(O)ccc(CCNCCCSCCOCCc3ccccc3)c2s1 | 8.02 | 270 | > 180 min | 2.31 | 3.53 | 10.2 | > 8 | –
2 | O=c1[nH]c2c(O)ccc(CCNCCS(=O)(=O)CCCOCCc3ccccc3)c2s1 [SIBENADET] | 8.09 | – | 146 min | 2.51 | – | 6.58 | < 8 | 8.55
3 | O=S(=O)(CCOCCc1ccccc1)NCCNCCc1ccc(O)c2nc(O)sc12 | 7.39 | – | 135 min | 1.56 | – | 8.58 | > 8 | 7.5
4 | O=S(=O)(CCCNCCc1ccc(O)c2nc(O)sc12)CCOCCc1ccccc1 | 7.93 | 270 | 140 min | 1.37 | – | 9.07 | > 8 | 7.35
5 | O=S(=O)(CCCNCCc1ccc(O)c2nc(O)sc12)CCSCCc1ccccc1 | 7.57 | – | > 180 min | 2.34 | – | – | > 8 | –
6 | O=C(CCOCCc1ccccc1)NCCNCCc1ccc(O)c2nc(O)sc12 | 9.27 | 150 | 57 min | 1.34 | – | 8.75 | > 8 | 7.62
7 | O=S(=O)(CCCNCCc1ccc(O)c2nc(O)sc12)CCOCCCc1ccccc1 | 8.69 | – | > 180 min | 2.1 | – | – | > 8 | –
8 | Nc1ccccc1CCOCCS(=O)(=O)CCCNCCc1ccc(O)c2nc(O)sc12 | 7.46 | – | 33 min | 1.17 | – | – | > 8 | –
9 | NC(=O)c1ccc(CCOCCCS(=O)(=O)CCNCCc2ccc(O)c3nc(O)sc23)cc1 | 7.54 | – | 50 min | 1.1 | – | – | < 8 | –
10 | O=[N+]([O-])c1ccc(CCOCCCSCCNCCc2ccc(O)c3nc(O)sc23)cc1 | 6.78 | – | > 180 min | 3.29 | – | – | > 8 | –
11 | O=S(=O)(Nc1ccc(CCOCCCSCCNCCc2ccc(O)c3nc(O)sc23)cc1)c1ccccc1 | 7.57 | – | > 180 min | 3.52 | – | – | > 8 | –
12 | CN(CCCS(=O)(=O)CCOCCc1ccccc1)CCc1ccc(O)c2nc(O)sc12 | – | 150 | – | – | – | – | – | –
13 | O=c1[nH]c2c(O)ccc(CCNCCCS(=O)(=O)CCCOCCc3ccccc3)c2s1 | 8.24 | 270 | 172 min and 80 min | 1.65 | 1.34 | – | > 8 | –
14 | Oc1nc2c(O)ccc(CCNCCSCCCOCCc3ccccc3)c2s1 | 8.36 | – | > 180 min | 2.86 | – | – | > 8 | –
15 | Oc1nc2cccc(CCNCCCCCCNCCc3ccc(O)c4nc(O)sc34)c2s1 | 7.86 | – | 45 min | 1 | – | – | > 8 | –
16 | CC(C)(CNCCc1ccc(O)c2nc(O)sc12)CSCCOCCc1ccccc1N | 7.13 | – | > 180 min | 3.44 | – | – | > 8 | –
17 | O=S(=O)(CCCOCCc1ccccn1)CCNCCc1ccc(O)c2nc(O)sc12 | 7.49 | – | 24 min | 0.95 | – | – | < 8 | –
18 | O=S(=O)(CCCNCCc1ccc(O)c2nc(O)sc12)CCOCCOc1ccccc1 | 7.44 | – | 52 min | 1.13 | – | – | > 8 | –
19 | O=S(=O)(CCCOCCc1ccc(Br)cc1)CCNCCc1ccc(O)c2nc(O)sc12 | 7.4 | – | > 180 min | 3.36 | – | – | > 8 | –
20 | Oc1nc2c(O)ccc(CCNCCCSCCOCCc3ccccn3)c2s1 | 7.32 | – | 75 min | 0.83 | – | – | > 8 | –
21 | Oc1nc2c(O)ccc(CCNCCCSCCOCCOc3ccccc3)c2s1 | 7.06 | – | > 180 min | 2.11 | – | – | > 8 | –
22 | O=[N+]([O-])c1ccc(CCOCCCS(=O)(=O)CCNCCc2ccc(O)c3nc(O)sc23)cc1 | 6.73 | – | 77 min | 2.32 | – | – | < 8 | –

Other lines, results leading:

Row | p[A]50 [1] | D2 duration [2] [min] | Beta2 duration [3] | logD (physchem [4]) | logD [5] | pKa (physchem [6]) | pKa (physchem [7]) | pKa (physchem [8]) | SMILES
23 | 8.82 | – | > 180 min | 1.19 | – | 9.23 | > 8 | 7.65 | Oc1nc2c(O)ccc(CCNCCCOCCOCCc3ccccc3)c2s1
24 | 8.23 | 270 | > 180 min | 2.73 | – | – | > 8 | – | Oc1nc2c(O)ccc(CCNCCCCCCOCCc3ccccc3)c2s1
25 | 7.18 | 90 | 22 min | 1.29 | – | – | > 8 | – | O=C(CCCCCNCCc1ccc(O)c2nc(O)sc12)NCCc1ccccc1
26 | 7.86 | – | > 180 min | 2.8 | – | – | > 8 | – | Oc1nc2c(O)ccc(CCNCCCSCCOCCCc3ccccc3)c2s1
27 | 8.63 | – | 150 min | 1.91 | – | – | > 8 | – | O=C(CCOCCCc1ccccc1)NCCNCCc1ccc(O)c2nc(O)sc12
28 | 7.4 | – | 72 min | 1.11 | – | – | > 8 | – | O=S(=O)(CCCNCCc1ccc(O)c2nc(O)sc12)NCCOCc1ccccc1
29 | 7.03 | – | > 180 min | 1.73 | – | – | > 8 | – | Oc1nc2c(O)ccc(CCNCCCOCCSCCc3ccccc3)c2s1
30 | 7 | – | > 180 min | 1.44 | – | – | > 8 | – | O=S(=O)(CCCCCCNCCc1ccc(O)c2nc(O)sc12)CCc1ccccc1
31 | 6.84 | – | > 180 min | 1.57 | – | – | > 8 | – | Oc1nc2c(O)ccc(CCNCCCCCCNCC(F)(F)c3ccccc3)c2s1
32 | 8.47 | – | 84 min | 1.12 | – | – | > 8 | – | [O-][S+](CCCNCCc1ccc(O)c2nc(O)sc12)CCOCCc1ccccc1 (centres undefined)
33 | 6.73 | – | 28 min | 0.9 | – | – | > 8 | – | O=S(=O)(CCCNCCc1ccc(O)c2nc(O)sc12)CCNCCOc1ccccc1
34 | 7.16 | – | > 1080 min | 2.06 | – | 8.68 | > 8 | 7.55 | Oc1nc2c(O)ccc(CCNCCOCCCOCCc3ccccc3)c2s1
